According to patent US12234211B2, “Cycloolefin substituted heteroaromatic compounds and their use” (HUTCHISON MEDIPHARMA LIMITED, priority 2017, dated 2025):

Target: T1, IDH2-R140Q (Homo sapiens, UniProt P48735, R140Q)
T1 construct: expressed in transfected cells
T1 sequence (P48735 40-452 R140Q): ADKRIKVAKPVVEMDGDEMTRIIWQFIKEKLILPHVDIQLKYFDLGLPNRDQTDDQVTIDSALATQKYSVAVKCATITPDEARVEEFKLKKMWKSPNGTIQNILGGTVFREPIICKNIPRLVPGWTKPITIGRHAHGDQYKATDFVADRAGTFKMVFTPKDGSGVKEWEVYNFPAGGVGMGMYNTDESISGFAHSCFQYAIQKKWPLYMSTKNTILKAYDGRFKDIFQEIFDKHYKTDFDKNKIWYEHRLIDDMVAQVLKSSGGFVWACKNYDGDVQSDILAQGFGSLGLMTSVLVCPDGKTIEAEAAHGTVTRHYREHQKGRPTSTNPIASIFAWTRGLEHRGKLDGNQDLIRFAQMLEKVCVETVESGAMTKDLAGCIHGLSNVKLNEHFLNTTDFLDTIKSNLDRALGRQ
Test: Fluorescent determination of IDH2-R140Q cell activity (2-HG in U87MGR140Q cells)
Assay type: cell-based
Conditions: 72 hours incubation, read-out: IC50 (2-HG inhibition)
Procedure: Enzyme reaction solution: 1 mM nicotinamide adenine dinucleotide (NAD), 0.6 ng/μL D-2-hydroxyglutarate dehydrogenase (D2HGDH), 0.8 U/mL lipoamidase dehydrogenase (Diaphorase) and 60 μM Resazurin in 40 mM Tris.HCl pH 8.8 assay buffer.
Standard curve stock solution: The standard of 2-HG sodium salt was serially diluted in serum-free MEM medium to make a standard curve stock solution.
100 μL of U87MGR140Q cells were seeded at a density of 6×10^4/mL per well in a 96-well plate a.
From each well of 96-well plate a, 50 μL of the culture supernatant was transferred to the corresponding well of 96-well plate b; at the same time, 50 μL of standard curve stocking solution was added to other wells of 96-well plate b. Then 10 μl of 360 mM hydrochloric acid was added to all the wells. After shaking and mixing, the plate was placed on ice for 10 minutes, and then 10 μl of 420 mM Tris-base was added. After shaking and mixing, the plate was placed on ice for additional 5 minutes. Then the plate was centrifuged at 2500 rpm for 10 minutes.
After centrifuging, from each well of 96-well plate b, 20 μL of the supernatant was transferred to 96-well plate c. An additional 80 μL of the enzyme reaction solution was added to each well and incubated at 25° C. for 90 minutes.
A standard curve of the fluorescence value vs. the corresponding 2-HG concentration was made, and the 2-HG concentration corresponding to each concentration point of the compound was calculated, then the inhibition ratio was calculated, and the data was analyzed using XLfit5 (ID Business Solutions Limited) software to obtain the IC50 value.
The inhibition ratio was calculated as follows: Inhibition Ratio (IH %)=(1-2-HG concentration of test compound treated cells/2-HG concentration of control cells)×100%.

Row | Compound | IC50 [nM]
1 | C[C@@H](Nc1nc(N[C@H]2CCOC2)nc(C2=CC(F)(F)CCC2)n1)C(F)(F)F [Compound 139] | 2510
2 | OC1CCCC(c2nc(NC3CC3)nc(NC3CC(F)(F)C3)n2)=C1F (stereo not shown) [Compound 49] | 210
3 | OC1CCCC(c2nc(Nc3ccc(F)cc3)nc(Nc3ccnc(C(F)(F)F)c3)n2)=C1F (stereo not shown) [Compound 72] | 42
4 | CCCNc1nc(N[C@H](C)C(F)(F)F)nc(C2=C(F)C(O)C(F)(F)CC2)n1 (mixture of isomers) [Compound 248] | 93
5 | C[C@@H](Nc1nc(NC2CCC(F)(F)C2)nc(C2=CC(O)CCC2)n1)C(F)(F)F (mixture of isomers) [Compound 176] | 612
6 | CCNc1nc(N[C@H](C)C(F)(F)F)nc(C2=CC(O)CCC2)n1 (mixture of isomers) [Compound 135] | 336
7 | [2H]C1([2H])CCC(c2nc(NC(C)C)nc(NC3CC(F)(F)C3)n2)=C(F)C1O (stereo not shown) [Compound 56] | 93
8 | CC(C)Nc1nc(N[C@H](C)C(F)(F)F)nc(C2=C(Cl)C(O)CCC2)n1 (mixture of isomers) [Compound 17] | 1620
9 | CC(C)Nc1nc(N[C@H](C)C(F)(F)F)nc(C2=CCCC(F)C2)n1 (mixture of isomers) [Compound 37] | 1910
10 | [2H]C1(O)CCCC(c2nc(N[C@@H](C)C(F)(F)F)nc(NC([2H])(C([2H])([2H])[2H])C([2H])([2H])[2H])n2)=C1F (mixture of isomers) [Compound 30] | 228
11 | [2H]C1(O)CCCC(c2nc(N[C@H](C)C(F)(F)F)nc(NC([2H])(C([2H])([2H])[2H])C([2H])([2H])[2H])n2)=C1F (mixture of isomers) [Compound 29] | 177
12 | C[C@@H](Nc1nc(N[C@@H]2CCOC2)nc(C2=CC(O)CCC2)n1)C(F)(F)F (stereo partly shown) [Compound 179] | 598
13 | C[C@@H](Nc1nc(NC2(C)CC2)nc(C2=CC(O)CCC2)n1)C(F)(F)F (mixture of isomers) [Compound 156] | 657
14 | CC(C)Nc1nc(N[C@H](C)C(F)(F)F)nc(C2=CC(F)(F)CCC2)n1 [Compound 138, (R)-6-(3,3-difluorocyclohex-1-en-1-yl)-N^2-isopropyl-N^4-(1,1,1-trifluoropropan-2-yl)-1,3,5-triazine-2,4-diamine] | 504
15 | CC(C)Nc1nc(Nc2ccn3nccc3c2)nc(C2=C(F)C(O)CCC2)n1 (stereo not shown) [Compound 59] | 221
16 | CC(C)Nc1nc(N[C@H](C)C(F)(F)F)nc(C2=C(F)C(F)CCC2)n1 (mixture of isomers) [Compound 35, 6-(2,3-Difluorocyclohex-1-en-1-yl)-N^2-isopropyl-N^4-((R)-1,1,1-trifluoropropan-2-yl)-1,3,5-triazine-2,4-diamine] | 591
17 | CC(C)Nc1nc(NC(C)C)nc(C2=C(F)C(O)CCC2)n1 (stereo not shown) [Compound 25] | 665
18 | CC(C)CNc1nc(N[C@H](C)C(F)(F)F)nc(C2=C(F)C(O)CCC2)n1 (mixture of isomers) [Compound 12] | 199
19 | [2H]C([2H])([2H])C([2H])(Nc1nc(NC2CC(F)(F)C2)nc(C2=C(F)C(O)CCC2)n1)C([2H])([2H])[2H] (stereo not shown) [Compound 55] | 103
20 | COC[C@H](C)Nc1nc(N[C@H](C)C(F)(F)F)nc(C2=CC(O)CCC2)n1 (stereo partly shown) [Compound 183] | 507
21 | CC(C)Nc1nc(Nc2cnn(C)c2)nc(C2=C(F)C(O)CCC2)n1 (stereo not shown) [Compound 57] | 2180
22 | OC1CCCC(c2nc(NC3CC3)nc(NC3CC(F)(F)C3)n2)=C1F (stereo not shown) [Compound 27] | 148
23 | C[C@@H](Nc1nc(N[C@@H]2C[C@@H]2F)nc(C2=C(F)C(O)CCC2)n1)C(F)(F)F (mixture of isomers) [Compound 16] | 326
24 | [2H]C([2H])([2H])Nc1nc(Nc2ccnc(C(F)(F)F)c2)nc(C2=C(F)C(O)CCC2)n1 (stereo not shown) [Compound 58] | 169
25 | CC(C)C(=O)Nc1nc(N[C@H](C)C(F)(F)F)nc(C2=CC(O)CCC2)n1 (mixture of isomers) [Compound 137] | 1540
